Reference: paper PMC5760633, “Determining direct binders of the Androgen Receptor using a high-throughput Cellular Thermal Shift Assay” (Scientific Reports, 2018)

Key:
[1] = tested on: AR-driven transcription (ARE-Luciferase); assay: AR-driven transcription ARE Luciferase reporter assay in CWR22Pc-R1-AD1 cells; assay type: cell-based, human; settings: 1 nM DHT, 24 h; for IC50: CWR22Pc-R1-AD1 cells, read-out: AR-driven transcription (ARE-Luciferase), 24 h, IC50; for Conclusion: activity in ARE-Luciferase assay: Supplementary Table S1;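 as to all read-outs here: cells stably carrying an ARE-driven firefly luciferase reporter, with luminescence as read-out, tested in phenol red free RPMI containing 10% charcoal stripped FBS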
Description: 15 µL 2x Steady-Glo® reagent (Promega) was added per well and incubated 15 min in the dark before reading luminescence using an EnVision platereader. Experiments were performed in phenol red free RPMI media supplemented with 10% charcoal stripped FBS.

[2] = tested on: AR-responsive transcript FKBP5; assay: AR functional RT-qPCR assay (FKBP5 transcript) in CWR22Pc-R1-AD1 cells; assay type: cell-based, human; settings: 48 h, 1 nM DHT
Description: oxygen from the donor to the acceptor, exciting a fluorophore to emit light at 520-620 nm5.
Two primary anti-AR antibodies derived from mouse and rabbit were applied to bind AR simultaneously at separate epitopes. Secondary AlphaScreen® antibodies were combined with the primary antibodies in the form of AlphaScreen® donor beads functionalised with antibodies recognising mouse antibody IgG (PerkinElmer AS104D), and AlphaScreen® acceptor beads functionalised with antibodies recognising rabbit antibody IgG (PerkinElmer AL104C). […]
red free RPMI1640 media supplemented with 10% charcoal-stripped serum was used throughout. […] Media was removed using an ELX405 CW washer (BioTek) and 12 µL RealTime ready Cell Lysis Kit supplemented with RNAse inhibitor (Roche) was added per well. […] RealTime ready RNA Virus Master Mix (Roche) was prepared following manufacturer’s instructions, supplemented with primers and probes for FKBP5 (FAM, IDT Ref Seq # NM_001145776(3)) and β-Actin (VIC, IDT Ref Seq # NM_001101(1)). […] PCR plates were sealed and analysed using a LightCycer®II 480 (Roche). […] 40 PCR cycles were performed consisting of 30 sec at 95 °C, 20 sec at 60 °C, fluorescence acquisition, and 1 sec at 72 °C. Calculated Cq values were exported for analysis. […]

Compound | IC50 [1] | Conclusion: activity in ARE-Luciferase assay [1] | reduction of AR-responsive transcript FKBP5 (RT-qPCR) [2]
N#Cc1cc2cc(CN3CCC(Nc4ncnc5sc(CC(F)(F)F)cc45)CC3)ccc2[nH]1 [MI-136] | 7.4 µM | Active | confirmed
Cc1c(CN2CCC(Nc3ncnc4sc(CC(F)(F)F)cc34)CC2)ccc2c1cc(C#N)n2Cc1cn[nH]c1 [MI-503] | 11 µM | Active | confirmed
